Laboratory results taken from PubChem BioAssay AID743417 (Broad Institute, 2014).
Inconclusive results are not listed. Calls of active or inactive are those of the source.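 Rule for the calls: active = compounds lowering the luciferase signal with a fitted half-maximal dose at most twice their top valid dose (cut at about 30 µM in these data); inconclusive = flat fits with moderate signal loss, or poor fits; inactive = the rest.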 *1 amine or outer side, *2 acyl side, *3 side chain or, on linkers, in order; H or OH if unused. Where a SMILES comes first, the peptide text is derived from it. Bridges are numbered along the chain shown (N, C = ends). [ ]: non-standard residue; d: D form. ξ: configuration not given here. X1 = CC[C@H](CCC[C@@H](O)[C@@H](C)C(=O)O[C@H](C)[C@@H](C)C/C=C(C)/C(=C\C(=O)[*:1])OC)O[*:2]; NMeξIle = CC[C@H](C)C(NC)C(=O)O; NMeV = CN[C@H](C(=O)O)C(C)C; NMeS = CN[C@@H](CO)C(=O)O

Each compound was assayed on Clone20 osteoblast Shn3 3'UTR firefly luciferase, 24 h (assay: Schnurri-3 3'UTR-luciferase signal suppressors – cell-based, Clone20 osteoblasts, luminescence, dry powder, set 2, dose response (AID 743417)).

| Compound | AC50 |
| --- | --- |
| CCCC(=O)NC(=S)Nc1ccc(N2CCN(C(=O)c3cccs3)CC2)cc1 | 10.1 µM |
| CCOC(=O)c1cnc(-n2nc(C)cc2C)nc1NC1CCCC1 | 4.4 µM |
| CSc1nnc(NC(=O)c2nc(S(=O)(=O)Cc3ccccc3)ncc2Cl)s1 | 1.35 µM |
| Oc1ccccc1Nc1nc(NCc2ccccc2)c2ccccc2n1 | 10.7 µM |
| CS(=O)(=O)c1ccc(C(=O)OCC(=O)N2CCN(CCC3CCCCC3)CC2)cc1[N+](=O)[O-] | 2.41 µM |
| CC1=NOC(=O)/C1=C\c1ccc(-c2cc(Cl)ccc2Cl)o1 | 5.69 µM |
| CC1C(OC(=O)CCC(=O)NC(C)(C)CO)O[C@H]2OC3(C)CC[C@H]4[C@H](C)CCC1C24OO3 (stereo partly specified) | 0.495 µM |
| CC1(C)CC(=O)c2c(nc(SCC(=O)Nc3nsc(-c4ccccc4)n3)c(C#N)c2-c2ccccc2)C1 | > 70 µM (inactive) |
| CCC(C)C1NC(=O)C(NC(=O)C(CC(C)C)N(C)C(=O)C2CCCN2C(=O)C(C)O)C(C)OC(=O)C(Cc2ccc(OC)cc2)N(C)C(=O)C2CCCN2C(=O)C(CC(C)C)NC(=O)[C@H](C)C(=O)[C@H](C(C)C)OC(=O)CC1O (stereo partly specified) | < 0.26 µM |
| Cc1cccc(C)c1NC(=O)CN(C)C(=O)c1cc(S(=O)(=O)N(C)C)ccc1N1CCCC1 | 27.1 µM |
| Fc1ccc2[nH]c3c(NCc4ccccc4)ncnc3c2c1 | 3.09 µM |
| Cc1ccc(C)c(S(=O)(=O)Nc2ccc(-n3cnnn3)cc2)c1 | > 70 µM (inactive) |
| CCOc1cc(C)c(S(=O)(=O)Nc2ccc3cn[nH]c3c2)cc1C | 4.89 µM |
| CC(=O)Nc1ccc(Sc2ccc([N+](=O)[O-])o2)cc1 | 2.15 µM |
| CCCc1nnc(NC(=O)c2nc(S(=O)(=O)Cc3cccc(C)c3)ncc2Cl)s1 | 2.55 µM |
| S=C(NCCCCN(Cc1ccc(Cl)cc1)c1ccc(Br)cn1)NCCCc1cnc[nH]1 | 7.24 µM |
| O=C(CSc1nc(-c2ccco2)cc(C(F)(F)F)n1)Nc1ccc(C(=O)N2CCCCC2)cc1 | 2.87 µM |
| C[C@H](NC(=O)c1ncn2c1c(=O)[nH]c1ccc(Br)cc12)c1ccccc1 | 8.76 µM |
| CCOC(=O)C1CCN(c2cc3c(cc2NC(=O)c2ccccc2Br)n(C)c(=O)n3C)CC1 | 21.3 µM |
| Cc1cc(C(=O)NC2CCCc3c2cnn3-c2ccc(C)c(C)c2)n(C)n1 (stereo unspecified) | < 0.26 µM |
| CC(C)(C)n1ncc2c(=O)n(Cc3cccc(Cn4cnc5c(cnn5C(C)(C)C)c4=O)c3F)cnc21 | 1.09 µM |
| Cc1ccc(S(=O)(=O)NCc2ccc(C(=O)N3CCN(c4ccc([N+](=O)[O-])cc4)CC3)cc2)cc1 | 3.79 µM |
| CCSc1nnc(NC(=O)c2nc(S(=O)(=O)Cc3ccc(F)cc3)ncc2Cl)s1 | 4.96 µM |
| Nc1nc(Cl)cc(N2CCC(c3cc(-c4ccc(Cl)cc4)n[nH]3)CC2)n1 | 2.43 µM |
| COc1cc(NC(=O)c2cccc3c(-c4cccnc4)coc23)cc(OC)c1OC | 0.978 µM |
| CC(=O)c1ccc(NC(=O)C(C)OC(=O)/C=C/c2ccco2)cc1 (stereo unspecified) | 9.12 µM |

| Compound | AC50 |
| --- | --- |
| Cc1cccc(CS(=O)(=O)c2ncc(Cl)c(C(=O)Nc3nnc(C(C)C)s3)n2)c1 | 1.62 µM |
| O=C(NCc1ccc2c(c1)OCO2)c1nc(S(=O)(=O)Cc2ccccc2)ncc1Cl | 6.4 µM |
| COc1ccccc1CNc1nc(NCc2ccc(C(C)C)cc2)c2sccc2n1 | 6.81 µM |
| O=C(C1CCC(CNS(=O)(=O)c2cccs2)CC1)N1CCN(c2ccc(Cl)cc2)CC1 (stereo unspecified) | 1.61 µM |
| CCOc1ccc(S(=O)(=O)NCc2ccncc2)cc1 | 0.261 µM |
| CCS(=O)(=O)c1ncc(Cl)c(C(=O)Nc2ccccc2OC)n1 | 3.71 µM |
| CC[C@@H]1CCC[C@@H](O)[C@@H](C)C(=O)O[C@H](C)[C@@H](C)C/C=C(C)/C(OC)=C\C(=O)N(C)C([C@@H](C)CC)C(=O)N(C)[C@@H](C(C)C)C(=O)N(C)[C@@H](COC)C(=O)N2CCC[C@H]2C(=O)N(C)[C@@H](C(C)C)C(=O)N2CCC[C@H]2C(=O)O1 (stereo partly specified) ([NMeξIle][NMeV][NMeS](Me)P[NMeV]P; linker N-C via X1) | < 0.26 µM |
| Oc1ccc(CCNc2ncnc3ccc(Cl)cc23)cc1 | 0.551 µM |
| CC12CC(O)C3c4ccc(O)cc4CCC3C1CCC2=O (stereo unspecified) | > 70 µM (inactive) |
| CCOC(=O)C1(CCOc2ccccc2)CCN(Cc2ccc(OC)c(COC)c2)CC1 | 3.87 µM |
| CCOc1cc(/C=C\[N+](=O)[O-])ccc1OCC(=O)Nc1ccccc1C | < 0.26 µM |
| COc1ccc(NC(=O)CSc2ncccc2C(=O)OC(C)C)cc1OC | 4.1 µM |
| COc1ccc(Nc2nc(N3CCCCC3)c3ccccc3n2)cc1 | 2.11 µM |
| Cc1cccc(Oc2cc(NC(=O)c3ccccc3)cc([N+](=O)[O-])c2)c1 | 3.09 µM |
| Cc1cccc(NC(=O)Cn2cc(C(=O)C3CC3)c3ccccc32)c1C | 2.39 µM |
| CC1CC(C)CC(C)C(O)C(C#N)=CC=CCC(C2CCCC2C(=O)O)OC(=O)CC(O)C(C)C1 (stereo unspecified) | < 0.26 µM |
| Cc1ccc(NC(=O)C2CCN(S(=O)(=O)c3ccc4c(c3)NC(=O)C(C)S4)CC2)cc1Cl (stereo unspecified) | 2.83 µM |
| c1ccc(CN2CCN(c3ncnc4c3[nH]c3ccccc34)CC2)cc1 | 2.06 µM |
| O=C(Nc1ccc(F)c(F)c1)c1ccc(F)c(S(=O)(=O)N2CCC3(CC2)OCCO3)c1 | 12.2 µM |
| CC(C)(C)c1ccc(CN2C3=NCCCN3c3ccccc32)cc1 | 0.836 µM |
| CCOc1cc(C(=O)CSc2nnc(CNc3ccc(Cl)cc3)o2)ccc1NC(=O)CC | 7.73 µM |
| Cc1ccccc1OCC(O)Cn1c(=N)n(Cc2ccccc2)c2ccccc21 (stereo unspecified) | 2.25 µM |
| CC(C)(C)C(=O)Nc1cc2nn(-c3ccccc3)nc2cc1Cl | 5.16 µM |
| Cc1ccc(-c2nc3cccnc3o2)cc1NC(=O)COc1ccc(C(C)(C)C)cc1 | 10.8 µM |
| OC(CNCCC1C=Nc2ccccc21)Cn1c2ccc(Cl)cc2c2cc(Cl)ccc21 (stereo unspecified) | 5.11 µM |
